Experiments:
[1] = forms otherwise stable and appropriate; background statement; cited from earlier work
fungus organisms = conditions: background statement; cited from earlier work
physchem = conditions: water, pH 2, water

Molecule | solubility in methanol at pH 9.5 (in words) | water solubility (background, in words) [1] | antifungal properties (fungus organisms) | development of resistant strains or forms (fungus organisms) | solubility (physchem) | amount soluble in 750 ml of methanol (solubility in methanol; 750 ml methanol) | extent of solubilization in methanol (solubility in methanol; 100 mg added to 750 ml methanol) | extent of solubility in methanol at pH 9.5 (solubility in methanol; 100 mg in 80 ml methanol, pH adjusted to 9.5 with triethylamine)
C[C@@H]1[C@H](O)[C@@H](C)/C=C/C=C/C=C/C=C/C=C/C=C/C=C/[C@H](O[C@@H]2O[C@H](C)[C@@H](O)[C@H](N)[C@@H]2O)C[C@@H]2O[C@](O)(C[C@@H](O)C[C@@H](O)[C@H](O)CC[C@@H](O)C[C@@H](O)CC(=O)O[C@H]1C)C[C@H](O)[C@H]2C(=O)O [amphotericin B] | completely soluble | lack of adequate water solubility | powerful antifungal properties | apparent inability of fungus organisms to develop readily any strains or forms that are resistant to amphotericin B | < 1000 µg/mL | 100 mg |  | 
Amphotericin B-Calcium-Oxalic Acid Complex [Example 1] |  |  |  |  |  |  | 40% | 35%
